Source: patent US8383094B2, “Hepatitis C virus inhibitors” (Bristol-Myers Squibb Company, priority 2008, dated 2013)
Read-outs that look alike come from different tables or passages of the source.

Test system: HCV 1b genotype
Assay: HCV Replicon assay (HCV-neo replicon cells, wild-type)
Format: cell-based
Method: An HCV Replicon assay was utilized in the present disclosure, and was prepared, conducted and validated as described in commonly owned PCT/US2006/022197 and in O′Boyle et. al. Antimicrob Agents Chemother, 2005 April; 49(4):1346-53. Assay methods incorporating luciferase reporters have also been used as described (Apath.com).
HCV-neo replicon cells and replicon cells containing mutations in the NS5A region were used to test the currently described family of compounds. The compounds were determined to have more than 10-fold less inhibitory activity on cells containing mutations than wild-type cells. Thus, the compounds of the present disclosure can be effective in inhibiting the function of the HCV NS5A protein and are understood to be as effective in combinations as previously described in application PCT/US2006/022197 and commonly owned WO/04014852. Further, the compounds of the present disclosure can be effective against the HCV 1b genotype. It should also be understood that the compounds of the present disclosure can inhibit multiple genotypes of HCV. […] In one embodiment, compounds of the present disclosure are inhibitory versus 1a, 1b, 2a, 2b, 3a, 4a, and 5a genotypes.

[1] = Hepatitis C virus, HCV 1b genotype replicon, range class A-D, read-out: 1b EC50 (in μM or range)
[2] = Hepatitis C virus, HCV 1b genotype replicon, read-out: 1b EC50 (in μM or range)
[3] = HCV 1b genotype replicon, range class A-D, read-out: 1b EC50 (in μM or range)

| SMILES | EC50 [1] [nM] | also measured |
| --- | --- | --- |
| CC[C@H](C(=O)N1CCC[C@H]1C(=O)Nc1ccc(C#Cc2ccc(NC(=O)[C@@H]3CCCN3C(=O)[C@@H](CC)c3ccccc3)cc2)cc1)c1ccccc1 [VN6, (2S,2′S)-N,N′-(1,2-ethynediyldi-4,1-phenylene)bis(1-((2S)-2-phenylbutanoyl)-2-pyrrolidinecarboxamide)] | 4.57 to 99 | – |
| CS(=O)(=O)N[C@@H](C(=O)N1CCC[C@H]1C(=O)Nc1ccc(C#Cc2ccc(NC(=O)[C@@H]3CCCN3C(=O)[C@H](NS(C)(=O)=O)c3ccccc3)cc2)cc1)c1ccccc1 [VN27, (2S,2′S)-N,N′-(1,2-ethynediyldi-4,1-phenylene)bis(1-((2R)-2-((methylsulfonyl)amino)-2-phenylacetyl)-2-pyrrolidinecarboxamide)] | < 4.57 | – |
| CN(CC(N)=O)C(C(=O)N1CCC[C@H]1C(=O)Nc1ccc(C#Cc2ccc(NC(=O)[C@@H]3CCCN3C(=O)C(c3ccccc3)N(C)CC(N)=O)cc2)cc1)c1ccccc1 (stereo partly drawn) [VN45, (2S,2′S)-N,N′-(1,2-ethynediyldi-4,1-phenylene)bis(1-(((2-amino-2-oxoethyl)(methyl)amino)(phenyl)acetyl)-2-pyrrolidinecarboxamide)] | 4.57 to 99 | – |
| O=C(Nc1ccc(C#Cc2ccc(NC(=O)[C@@H]3CCCN3C(=O)C(c3ccccc3)N3CCC(O)CC3)cc2)cc1)[C@@H]1CCCN1C(=O)C(c1ccccc1)N1CCC(O)CC1 (stereo partly drawn) [VN21, (2S,2′S)-N,N′-(1,2-ethynediyldi-4,1-phenylene)bis(1-((4-hydroxy-1-piperidinyl)(phenyl)acetyl)-2-pyrrolidinecarboxamide)] | – | EC50 [2]: 0.035 nM |
| Cn1c(C(=O)N2CCC[C@H]2C(=O)Nc2ccc(C#Cc3ccc(NC(=O)[C@@H]4CCCN4C(=O)c4cc5ccccc5n4C)cc3)cc2)cc2ccccc21 [Example D30, (2S,2′S)-N,N′-(1,2-ethynediyldi-4,1-phenylene)bis(1-((1-methyl-1H-indol-2-yl)carbonyl)-2-pyrrolidinecarboxamide)] | – | EC50 [2]: 1210 nM |
| CCc1cccnc1C(=O)N1CCC[C@H]1C(=O)Nc1ccc(C#Cc2ccc(NC(=O)[C@@H]3CCCN3C(=O)c3ncccc3CC)cc2)cc1 [Example D36.4, (2S,2′S)-N,N′-(4,4′-(ethyne-1,2-diyl)bis(4,1-phenylene))bis(1-(3-ethylpicolinoyl)pyrrolidine-2-carboxamide)] | – | EC50 [3]: 4.57 to 99 nM |
| O=C(Nc1ccc(C#Cc2ccc(NC(=O)[C@@H]3CCCN3C(=O)C(c3ccccc3)N3CC[C@@H](O)C3)cc2)cc1)[C@@H]1CCCN1C(=O)C(c1ccccc1)N1CC[C@@H](O)C1 (stereo partly drawn) [VN53, (2S,2′S)-N,N′-(1,2-ethynediyldi-4,1-phenylene)bis(1-(((3R)-3-hydroxy-1-pyrrolidinyl)(phenyl)acetyl)-2-pyrrolidinecarboxamide)] | – | EC50 [3]: 4.57 to 99 nM |
| O=C(Nc1ccc(C#Cc2ccc(NC(=O)[C@@H]3CCCN3C(=O)C(c3ccccc3)N3CC[C@@H](O)C3)cc2)cc1)[C@@H]1CCCN1C(=O)C(c1ccccc1)N1CC[C@@H](O)C1 (stereo partly drawn) [VN52, (2S,2′S)-N,N′-(1,2-ethynediyldi-4,1-phenylene)bis(1-(((3R)-3-hydroxy-1-pyrrolidinyl)(phenyl)acetyl)-2-pyrrolidinecarboxamide)] | < 4.57 | – |
| O=C(Nc1ccc(C#Cc2ccc(NC(=O)[C@@H]3CCCN3C(=O)[C@@H](c3ccccc3)N3CCOCC3)cc2)cc1)[C@@H]1CCCN1C(=O)[C@@H](c1ccccc1)N1CCOCC1 [VN13, (2S,2′S)-N,N′-(1,2-ethynediyldi-4,1-phenylene)bis(1-((2R)-2-(4-morpholinyl)-2-phenylacetyl)-2-pyrrolidinecarboxamide)] | < 4.57 | – |
| CN(CC(N)=O)C(C(=O)N1CCC[C@H]1C(=O)Nc1ccc(C#Cc2ccc(NC(=O)[C@@H]3CCCN3C(=O)C(c3ccccc3)N(C)CC(N)=O)cc2)cc1)c1ccccc1 (single isomer, unassigned) [VN34] | < 4.57 | – |
| O=C(Nc1ccc(C#Cc2ccc(NC(=O)[C@@H]3CCCN3C(=O)c3nc(Cl)cc4ccccc34)cc2)cc1)[C@@H]1CCCN1C(=O)Cc1cccnc1 [Example D40, (2S)-1-((3-Chloro-1-isoquinolinyl)carbonyl)-N-(4-((4-((((2S)-1-(3-pyridinylacetyl)-2-pyrrolidinyl)carbonyl)amino)phenyl)ethynyl)phenyl)-2-pyrrolidinecarboxamide] | 4.57 to 99 | – |
| CN(C)C1(C(=O)N2CCC[C@H]2C(=O)Nc2ccc(C#Cc3ccc(NC(=O)[C@@H]4CCCN4C(=O)C4(N(C)C)CCc5ccccc54)cc3)cc2)CCc2ccccc21 (stereo partly drawn) [VN42, (2S,2′S)-N,N′-(1,2-ethynediyldi-4,1-phenylene)bis(1-((1-(dimethylamino)-2,3-dihydro-1H-inden-1-yl)carbonyl)-2-pyrrolidinecarboxamide)] | – | EC50 [3]: 4.57 to 99 nM |
| O=C(CC1CC1)Nc1ccc(C#Cc2ccc(NC(=O)[C@@H]3CCCN3C(=O)OCc3ccccc3)cc2)cc1 [Example D19, Benzyl (2S)-2-((4-((4-((cyclopropylacetyl)amino)phenyl)ethynyl)phenyl)carbamoyl)-1-pyrrolidinecarboxylate] | 100 to 999 | – |
| O=C(Nc1ccc(C#Cc2ccc(NC(=O)[C@@H]3CCCN3C(=O)C3(c4ccccc4)CCCC3)cc2)cc1)[C@@H]1CCCN1C(=O)C1(c2ccccc2)CCCC1 [VN5, (2S,2′S)-N,N′-(1,2-ethynediyldi-4,1-phenylene)bis(1-((1-phenylcyclopentyl)carbonyl)-2-pyrrolidinecarboxamide)] | 4.57 to 99 | – |
| CC(=O)N1CCC[C@H]1C(=O)Nc1ccc(C#Cc2ccc(NC(=O)C3CCN(C(=O)OCc4ccccc4)C3)cc2)cc1 (stereo partly drawn) [Example D4, Benzyl 3-((4-((4-((1-acetyl-L-prolyl)amino)phenyl)ethynyl)phenyl)carbamoyl)-1-pyrrolidinecarboxylate] | 1000 to 10000 | – |
| CN1C[C@@H]2C[C@H]1CN2C(C(=O)N1CCC[C@H]1C(=O)Nc1ccc(C#Cc2ccc(NC(=O)[C@@H]3CCCN3C(=O)C(c3ccccc3)N3C[C@@H]4C[C@H]3CN4C)cc2)cc1)c1ccccc1 (stereo partly drawn) [VN18, (2S,2′S)-N,N′-(1,2-ethynediyldi-4,1-phenylene)bis(1-(((1S,4S)-5-methyl-2,5-diazabicyclo[2.2.1]hept-2-yl)(phenyl)acetyl)-2-pyrrolidinecarboxamide)] | – | EC50 (HCV 1b genotype replicon, read-out: 1b EC50 (in μM or range)): 130 nM |
| CN1CCN(C(C(=O)N2CCC[C@H]2C(=O)Nc2ccc(C#Cc3ccc(NC(=O)[C@@H]4CCCN4C(=O)C(c4ccccc4)N4CCN(C)CC4)cc3)cc2)c2ccccc2)CC1 (stereo partly drawn) [VN43, (2S,2′S)-N,N′-(1,2-ethynediyldi-4,1-phenylene)bis(1-((4-methyl-1-piperazinyl)(phenyl)acetyl)-2-pyrrolidinecarboxamide)] | – | EC50 [2]: 0.015 nM |
| O=C(Nc1ccc(C#Cc2ccc(NC(=O)[C@@H]3CCCN3C(=O)[C@H]3CCCO3)cc2)cc1)C1CCC1 [Example D24, N-(4-((4-((cyclobutylcarbonyl)amino)phenyl)ethynyl)phenyl)-1-((2R)-tetrahydro-2-furanylcarbonyl)-L-prolinamide] | 1000 to 10000 | – |
| O=CN[C@@H](C(=O)N1CCC[C@H]1C(=O)Nc1ccc(C#Cc2ccc(NC(=O)[C@@H]3CCCN3C(=O)[C@H](NC=O)c3ccccc3)cc2)cc1)c1ccccc1 [VN11, (2S,2′S)-N,N′-(1,2-ethynediyldi-4,1-phenylene)bis(1-((2R)-2-formamido-2-phenylacetyl)-2-pyrrolidinecarboxamide)] | – | EC50 [2]: 0.01 nM |
| CN[C@H](C(=O)N1CCC[C@H]1C(=O)Nc1ccc(C#Cc2ccc(NC(=O)[C@@H]3CCCN3C(=O)[C@@H](NC)c3ccccc3)cc2)cc1)c1ccccc1 [VN31, (2S,2′S)-N,N′-(1,2-ethynediyldi-4,1-phenylene)bis(1-((2S)-2-(methylamino)-2-phenylacetyl)-2-pyrrolidinecarboxamide)] | < 4.57 | – |
| CC(C)(C(=O)N1CCC[C@H]1C(=O)Nc1ccc(C#Cc2ccc(NC(=O)[C@@H]3CCCN3C(=O)C(C)(C)c3ccccc3)cc2)cc1)c1ccccc1 [VN3, (2S,2′S)-N,N′-(1,2-ethynediyldi-4,1-phenylene)bis(1-(2-methyl-2-phenylpropanoyl)-2-pyrrolidinecarboxamide)] | 4.57 to 99 | – |
| COc1cccc2c(C(=O)N3CCC[C@H]3C(=O)Nc3ccc(C#Cc4ccc(NC(=O)[C@@H]5CCCN5C(=O)CC5CC5)cc4)cc3)nc(Cl)cc12 [Example D47, (2S)-1-((3-Chloro-5-methoxy-1-isoquinolinyl)carbonyl)-N-(4-((4-((((2S)-1-(cyclopropylacetyl)-2-pyrrolidinyl)carbonyl)amino)phenyl)ethynyl)phenyl)-2-pyrrolidinecarboxamide] | 4.57 to 99 | – |
| CCC(=O)N[C@@H](C(=O)N1CCC[C@H]1C(=O)Nc1ccc(C#Cc2ccc(NC(=O)[C@@H]3CCCN3C(=O)[C@H](NC(=O)CC)c3ccccc3)cc2)cc1)c1ccccc1 [VN24, (2S,2′S)-N,N′-(1,2-ethynediyldi-4,1-phenylene)bis(1-((2R)-2-phenyl-2-(propionylamino)acetyl)-2-pyrrolidinecarboxamide)] | – | EC50 [2]: > 10000 nM |
| O=C(Nc1cncc(C#Cc2cncc(NC(=O)[C@@H]3CCCN3C(=O)Cc3ccccc3)c2)c1)[C@@H]1CCCN1C(=O)Cc1ccccc1 [YQ2, (2S,2′S)-N,N′-(1,2-ethynediyldi-5,3-pyridinediyl)bis(1-(phenylacetyl)-2-pyrrolidinecarboxamide)] | – | EC50 (Hepatitis C virus, read-out: 1b EC50 (in μM or range), HCV 1b genotype replicon): 523000 nM |
| C[C@@](O)(C(=O)N1CCC[C@H]1C(=O)Nc1ccc(C#Cc2ccc(NC(=O)[C@@H]3CCCN3C(=O)[C@@](C)(O)c3ccccc3)cc2)cc1)c1ccccc1 [VN1, (2S,2′S)-N,N′-(1,2-ethynediyldi-4,1-phenylene)bis(1-((2S)-2-hydroxy-2-phenylpropanoyl)-2-pyrrolidinecarboxamide)] | < 4.57 | – |
